One data set deals with male Wistar albino rats. Description: Streptozotocin (STZ) model of diabetes, blood glucose AUC. The settings on record: decrease in blood glucose relative to Amaryl = 100%; model not stated. The class given is in vivo, rat. As for the experimental part:
The complete course of the experiment was conducted using male Wistar albino rats (200-250 g), reared and maintained in the animal house of the institution and provided free access to pelleted food and water ad libitum. The rats were maintained in a controlled environment (12 h light and dark cycle) for about a week for acclimatization. The protocol of the study was approved by the animal ethics committee of the Faculty of Pharmacy, […] University (10-01-2012). The study was conducted in accordance with the EC, directive 86/609/EEC for animal experiments. […] Equivalent doses of all derivatives were calculated according to their molecular weight [M·wt]. Diabetes was induced in overnight fasted rats with a single intraperitoneal injection of streptozotocin (STZ) (Sigma-Aldrich, Co., St. Louis, USA. Catalog number: 1001062761) in a dose of 65 mg/kg. STZ was freshly dissolved in ice cold citrate buffer (0.01 M, pH 4.5) prior to injection. […] Group 2, diabetic + Glimepiride ([…]) (4 mg/kg), served as a reference antidiabetic drug. Groups (3-14) were given the various pyrrole derivatives ([…], b, f, and VIIIf, a, resp.). The treated groups administered the […] and different derivatives orally. For each group, blood glucose was estimated at zero, one, two, four, and six hours after oral administration of derivatives using glucometer (Gluco Dr Super Sensor, AllMedicus Co., Ltd., Anyang, Gyeonggi, Korea). Data were represented as mean area under curve (AUC) ± SD. Significant differences between groups was tested using GraphPad InStat (Graph software Inc., V 3.05, Ralph […], Purdue University). Appropriate graphs were plotted using Microsoft Excel 2007.
Turning to `Cc1nc(NN)c2c(-c3ccccc3)c(-c3ccccc3)n(-c3c(C)n(C)n(-c4ccccc4)c3=O)c2n1` [Vg, 4-(4-Hydrazinyl-2-methyl-5,6-diphenyl-7H-pyrrolo[2,3-d]pyrimidin-7-yl)-1,5-dimethyl-2-phenyl-1H-pyrazol-3(2H)-one], the “Potency of antihyperglycemic derivatives compared to Amaryl” value is 36.19%.

Tested on in another data set: not given
Assay: not given
Details: not given
Regarding `Nc1ncnc2c1c(-c1ccccc1)c(-c1ccccc1)n2-c1ccc(Cl)c(Cl)c1` [IIId, 7-(3,4-Dichlorophenyl)-5,6-diphenyl-7H-pyrrolo[2,3-d]pyrimidin-4-amine], the melting point – broadly, the temperature, or range, at which the solid turns liquid – was 115 to 118 °C.
Same read-out and setting: in the case of `Cc1c(-n2cc(-c3ccccc3)c3c(N)ncnc32)c(=O)n(-c2ccccc2)n1C` [IIIe, 4-(4-Amino-5-phenyl-7H-pyrrolo[2,3-d]pyrimidin-7-yl)-1,5-dimethyl-2-phenyl-1H-pyrazol-3(2H)-one] it was 152 to 155 °C; in that of `Nc1nc(=S)[nH]c2c1c(-c1ccccc1)c(-c1ccccc1)n2-c1ccc(Cl)c(Cl)c1` [IIIi, 4-Amino-7-(3,4-dichlorophenyl)-5,6-diphenyl-1H-pyrrolo[2,3-d] pyrimidine-2(7H)-thione], 90 to 95 °C.
The same measure, in the same setting: in the case of `Cc1c(-n2cc(-c3ccccc3)c3c(N)nc(=S)[nH]c32)c(=O)n(-c2ccccc2)n1C` [IIIj, 4-(4-Amino-5-phenyl-2-thioxo-1H-pyrrolo[2,3-d]pyrimidin-7(2H)-yl)-1,5-dimethyl-2-phenyl-1H-pyrazol-3(2H)-one] it was 172 to 174 °C; in that of `O=c1[nH]cnc2c1c(-c1ccccc1)c(-c1ccccc1)n2-c1ccc(Cl)c(Cl)c1` [IId, 7-(3,4-Dichlorophenyl)-5,6-diphenyl-3H-pyrrolo[2,3-d]pyrimidin-4(7H)-one], 172 to 176 °C; in that of `Cc1c(-n2cc(-c3ccccc3)c3c(=O)[nH]cnc32)c(=O)n(-c2ccccc2)n1C` [IIe, 7-(1,5-Dimethyl-3-oxo-2-phenyl-2,3-dihydro-1H-pyrazol-4-yl)-5-phenyl-3H-pyrrolo[2,3-d]pyrimidin-4(7H)-one], 205 to 208 °C.
The molecule `Cc1nc2c(c(-c3ccccc3)c(-c3ccccc3)n2-c2ccc(Cl)c(Cl)c2)c(=O)[nH]1` [IIi, 7-(3,4-Dichlorophenyl)-2-methyl-5,6-diphenyl-3H-pyrrolo[2,3-d]pyrimidin-4(7H)-one] showed a melting point of 200 to 202 °C.
Still for that read-out and setting: the value for `Cc1nc2c(c(-c3ccccc3)cn2-c2c(C)n(C)n(-c3ccccc3)c2=O)c(=O)[nH]1` [IIj, 7-(1,5-Dimethyl-3-oxo-2-phenyl-2,3-dihydro-1H-pyrazol-4-yl)-2-methyl-5-phenyl-3H-pyrrolo[2,3-d]pyrimidin-4(7H)-one] was 225 to 227 °C; that for `Clc1ccc(-n2c(-c3ccccc3)c(-c3ccccc3)c3c(Cl)ncnc32)cc1Cl` [IVd, 4-Chloro-7-(3,4-dichlorophenyl)-5,6-diphenyl-7H-pyrrolo[2,3-d]pyrimidine] was 124 to 128 °C.
On the same count and under the same terms, the value for `Cc1c(-n2cc(-c3ccccc3)c3c(Cl)ncnc32)c(=O)n(-c2ccccc2)n1C` [IVe, 4-(4-Chloro-5-phenyl-7H-pyrrolo[2,3-d]pyrimidin-7-yl)-1,5-dimethyl-2-phenyl-1H-pyrazol-3(2H)-one] was 125 to 130 °C; that for `Cc1nc(Cl)c2c(-c3ccccc3)c(-c3ccccc3)n(Cc3ccccc3)c2n1` [IVf, 7-Benzyl-4-chloro-2-methyl-5,6-diphenyl-7H-pyrrolo[2,3-d]pyrimidine] was 120 to 124 °C.
As for `Cc1nc(Cl)c2c(-c3ccccc3)c(-c3ccccc3)n(-c3ccc(Cl)c(Cl)c3)c2n1` [IVh, 4-Chloro-7-(3,4-dichlorophenyl)-2-methyl-5,6-diphenyl-7H-pyrrolo[2,3-d]pyrimidine], the melting point lay in the range of 108 to 110 °C.
As to `Cc1nc(Cl)c2c(-c3ccccc3)cn(-c3c(C)n(C)n(-c4ccccc4)c3=O)c2n1` [IVi, 4-(4-Chloro-2-methyl-5-phenyl-7H-pyrrolo[2,3-d]pyrimidin-7-yl)-1,5-dimethyl-2-phenyl-1H-pyrazol-3(2H)-one], the melting point was 95 to 100 °C.
The same measure, in the same setting: in the case of `N#Cc1c(-c2ccccc2)c(-c2ccccc2)n(-c2ccc(Cl)c(Cl)c2)c1N` [Id, 2-Amino-1-(3,4-dichlorophenyl)-4,5-diphenyl-1H-pyrrole-3-carbonitrile] it was 118 to 122 °C.
`CC(=O)Nc1c(C#N)c(-c2ccccc2)c(-c2ccccc2)n1-c1ccc(Cl)c(Cl)c1` [In, N-(3-Cyano-1-(3,4-dichlorophenyl)-4,5-diphenyl-1H -pyrrol-2-yl) acetamide] came in with a melting point of 135 to 138 °C.
Still for that read-out and setting: the value for `CC(=O)Nc1c(C#N)c(-c2ccccc2)cn1-c1c(C)n(C)n(-c2ccccc2)c1=O` [Io, N-(3-Cyano-1-(1,5-dimethyl-3-oxo-2-phenyl-2,3-dihydro-1H -pyrazol-4-yl)-4-phenyl-1H -pyrrol-2-yl)acetamide] was 135 to 138 °C; that for `N#Cc1c(-c2ccccc2)c(-c2ccccc2)n(-c2ccc(Cl)c(Cl)c2)c1NN=C1C(N)=NN=C1N` [VIIId, 2-(2-(3,5-Diamino-4H-pyrazol-4-ylidene)hydrazinyl)-1-(3,4-dichlorophenyl)-4,5-diphenyl-1H-pyrrole-3-carbonitrile] was 120 to 124 °C.
On the same count and under the same terms, in the case of `Cc1c(-n2cc(-c3ccccc3)c(C#N)c2NN=C2C(N)=NN=C2N)c(=O)n(-c2ccccc2)n1C` [VIIIe, 2-(2-(3,5-Diamino-4H-pyrazol-4-ylidene)hydrazinyl)-1-(1,5-dimethyl-3-oxo-2-phenyl-2,3-dihydro-1H-pyrazol-4-yl)-4-phenyl-1H-pyrrole-3-carbonitrile] it was 135 to 138 °C; in that of `N#Cc1c(-c2ccccc2)c(-c2ccccc2)n(Cc2ccccc2)c1NN=C1C(N)=NN=C1O` [VIIIf, 2-(2-(3-Amino-5-hydroxy-4H-pyrazol-4-ylidene)hydrazinyl)-1-benzyl-4,5-diphenyl-1H-pyrrole-3-carbonitrile], 97 to 100 °C.
`CCOC(=O)C(C#N)=NNc1c(C#N)c(-c2ccccc2)c(-c2ccccc2)n1Cc1ccccc1` [VIIf, Ethyl 2-(2-(1-Benzyl-3-cyano-4,5-diphenyl-1H-pyrrol-2-yl)hydrazono)-2-cyano-acetate] registered a melting point of 125 to 130 °C.
Molecule `S=c1[nH]cnc2c1c(-c1ccccc1)c(-c1ccccc1)n2-c1ccc(Cl)c(Cl)c1` [VId, 7-(3,4-Dichlorophenyl)-5,6-diphenyl-3H-pyrrolo[2,3-d]pyrimidine-4(7H)-thione] had a melting point of 142 to 166 °C.
Regarding `Cc1c(-n2cc(-c3ccccc3)c3c(=S)[nH]cnc32)c(=O)n(-c2ccccc2)n1C` [VIe, 1,5-Dimethyl-2-phenyl-4-(5-phenyl-4-thioxo-3H-pyrrolo[2,3-d]pyrimidin-7(4H)-yl)-1H-pyrazol-3(2H)-one], the melting point was 142 to 166 °C.
`Cc1nc2c(c(-c3ccccc3)c(-c3ccccc3)n2Cc2ccccc2)c(=S)[nH]1` [VIf, 7-Benzyl-2-methyl-5,6-diphenyl-3H-pyrrolo[2,3-d]pyrimidine-4(7H)-thione] yielded a melting point of 165 to 167 °C.
Regarding `NNc1ncnc2c1c(-c1ccccc1)c(-c1ccccc1)n2-c1ccc(Cl)c(Cl)c1` [Vd, 7-(3,4-Dichlorophenyl)-4-hydrazinyl-5,6-diphenyl-7H-pyrrolo[2,3-d]pyrimidine], the melting point was in the range of 122 to 126 °C.
Molecule `Cc1c(-n2cc(-c3ccccc3)c3c(NN)ncnc32)c(=O)n(-c2ccccc2)n1C` [Ve, 4-(4-Hydrazinyl-5-phenyl-7H-pyrrolo[2,3-d]pyrimidin-7-yl)-1,5-dimethyl-2-phenyl-1H-pyrazol-3(2H)-one] had a melting point of 142 to 146 °C.
Still for that read-out and setting: the value for `Cc1nc(NN)c2c(-c3ccccc3)c(-c3ccccc3)n(Cc3ccccc3)c2n1` [Vf, 7-Benzyl-4-hydrazinyl-2-methyl-5,6-diphenyl-7H-pyrrolo[2,3-d] pyrimidine] was 147 to 152 °C; that for `Cc1nc(NN)c2c(-c3ccccc3)c(-c3ccccc3)n(-c3c(C)n(C)n(-c4ccccc4)c3=O)c2n1` [Vg, 4-(4-Hydrazinyl-2-methyl-5,6-diphenyl-7H-pyrrolo[2,3-d]pyrimidin-7-yl)-1,5-dimethyl-2-phenyl-1H-pyrazol-3(2H)-one] was 185 to 188 °C; that for `Cc1nc(NN)c2c(-c3ccccc3)c(-c3ccccc3)n(-c3ccc(Cl)c(Cl)c3)c2n1` [Vh, 7-(3,4-Dichlorophenyl)-4-hydrazinyl-2-methyl-5,6-diphenyl-7H-pyrrolo[2,3-d]pyrimidine] was 142 to 146 °C.
In turn, `Cc1nc(NN)c2c(-c3ccccc3)cn(-c3c(C)n(C)n(-c4ccccc4)c3=O)c2n1` [Vi, 4-(4-Hydrazinyl-2-methyl-5-phenyl-7H-pyrrolo[2,3-d]pyrimidin-7-yl)-1,5-dimethyl-2-phenyl-1H-pyrazol-3(2H)-one] returned a melting point of 148 to 150 °C.

Values taken from article PMC4099110, “Synthesis and Evaluation of Novel Pyrroles and Pyrrolopyrimidines as Anti-Hyperglycemic Agents” (BioMed Research International, 2014).
